Data published in the supplement of paper PMC10307832.

Columns and labels:
Assay in all cases: relative viability (nuclei count vs DMSO), 5 days (fraction); higher = more cells survive
Selisistat + Luminespib = compound: C1CC(C2=C(C1)C3=C(N2)C=CC(=C3)Cl)C(=O)N [Selisistat] + CCNC(=O)c1noc(-c2cc(C(C)C)c(O)cc2O)c1-c1ccc(CN2CCOCC2)cc1 [Luminespib] (partner 0.01 µM)
Summary of the method: (§1)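 Five library-drug doses in √10 steps were combined with a fixed anchor-drug dose, or a single drug was given alone, by pin tool to lung cancer cell lines in 1536-well plates the day after seeding. Nuclei were stained and counted after 5 days. Relative viability is the nuclei count in treated wells over that in vehicle wells, taken as the median of duplicate plates.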

Selisistat + Olaparib = compound: C1CC(C2=C(C1)C3=C(N2)C=CC(=C3)Cl)C(=O)N [Selisistat] + O=C(c1cc(Cc2n[nH]c(=O)c3ccccc23)ccc1F)N1CCN(C(=O)C2CC2)CC1 [Olaparib] (partner 8 µM)
Summary of the method: as §1

Serdemetan + Pictilisib = compound: c1ccc2c(CCNc3ccc(Nc4ccncc4)cc3)c[nH]c2c1 [Serdemetan] + CS(=O)(=O)N1CCN(Cc2cc3nc(-c4cccc5[nH]ncc45)nc(N4CCOCC4)c3s2)CC1 [Pictilisib] (partner 1 µM)
Summary of the method: as §1

Serdemetan + AZD7762 = compound: c1ccc2c(CCNc3ccc(Nc4ccncc4)cc3)c[nH]c2c1 [Serdemetan] + NC(=O)Nc1cc(-c2cccc(F)c2)sc1C(=O)N[C@H]1CCCNC1 [AZD7762] (partner 0.2 µM)
Summary of the method: as §1

Cell Line | relative viability (Selisistat + Luminespib; first compound 0.4 µM) | relative viability (Selisistat + Luminespib; first compound 1.265 µM) | relative viability (Selisistat + Luminespib; first compound 4 µM) | relative viability (Selisistat + Luminespib; first compound 12.65 µM) | relative viability (Selisistat + Luminespib; first compound 40 µM) | relative viability (Selisistat + Olaparib; first compound 0.4 µM) | relative viability (Selisistat + Olaparib; first compound 1.265 µM) | relative viability (Selisistat + Olaparib; first compound 4 µM) | relative viability (Selisistat + Olaparib; first compound 12.65 µM) | relative viability (Selisistat + Olaparib; first compound 40 µM) | relative viability (Serdemetan + Pictilisib; first compound 0.04 µM) | relative viability (Serdemetan + Pictilisib; first compound 0.1265 µM) | relative viability (Serdemetan + Pictilisib; first compound 0.4 µM) | relative viability (Serdemetan + Pictilisib; first compound 1.265 µM) | relative viability (Serdemetan + Pictilisib; first compound 4 µM) | relative viability (Serdemetan + AZD7762; first compound 0.04 µM) | relative viability (Serdemetan + AZD7762; first compound 0.1265 µM) | relative viability (Serdemetan + AZD7762; first compound 0.4 µM) | relative viability (Serdemetan + AZD7762; first compound 1.265 µM) | relative viability (Serdemetan + AZD7762; first compound 4 µM)
NCI-H838 | 0.313 | 0.332 | 0.349 | 0.392 | 0.311 | 0.833 | 0.782 | 0.842 | 0.75 | 0.733 | 0.395 | 0.508 | 0.507 | 0.438 | 0.549 | 0.866 | 0.94 | 0.887 | 0.849 | 0.882
NCI-H1755 | 0.415 | 0.315 | 0.619 | 0.31 | 0.377 | 0.955 | 0.835 | 0.941 | 0.875 | 0.952 | 0.428 | 0.458 | 0.455 | 0.307 | 0.296 | 0.461 | 0.45 | 0.492 | 0.288 | 0.389
HCC-78 | – | – | – | – | – | 0.893 | 0.795 | 0.82 | 0.833 | 0.88 | 0.207 | 0.201 | 0.155 | 0.192 | 0.245 | 0.578 | 0.571 | 0.514 | 0.589 | 0.503
IA-LM | – | – | – | – | – | 0.899 | 0.897 | 0.849 | 0.802 | 0.806 | 0.4 | 0.499 | 0.325 | 0.314 | 0.389 | – | – | – | – | –
NCI-H322M | 0.875 | 0.82 | 0.562 | 0.868 | 0.812 | 0.857 | 0.83 | – | 0.845 | 0.868 | 0.519 | 0.505 | 0.468 | 0.552 | 0.516 | 0.565 | 0.573 | 0.533 | 0.524 | 0.43
COR-L23 | 0.709 | 0.715 | 0.641 | 0.655 | 0.61 | 0.409 | 0.331 | 0.406 | 0.367 | 0.335 | 0.665 | 0.767 | 0.785 | 0.598 | 0.752 | – | – | – | – | –
NCI-H2023 | 0.664 | 0.633 | 0.648 | 0.628 | 0.732 | 0.555 | 0.443 | 0.523 | 0.413 | 0.435 | 0.219 | 0.28 | 0.19 | 0.182 | 0.189 | – | – | – | – | –
COR-L 105 | 0.464 | 0.608 | – | 0.909 | 0.775 | 0.703 | 0.67 | 0.815 | 0.659 | 0.576 | 0.366 | 0.486 | 0.322 | 0.427 | 0.37 | – | – | – | – | –
NCI-H520 | 0.233 | 0.255 | 0.232 | 0.233 | 0.206 | 0.413 | 0.317 | 0.364 | 0.344 | 0.319 | 0.283 | 0.327 | 0.321 | 0.269 | 0.272 | – | – | – | – | –
SK-LU-1 | 0.202 | 0.176 | 0.189 | 0.213 | 0.227 | 0.567 | 0.408 | 0.404 | 0.495 | 0.529 | 0.572 | 0.47 | 0.713 | 0.494 | 0.407 | – | – | – | – | –
NCI-H522 | 1.07 | 1.1 | 0.789 | 1.17 | 1.08 | 0.574 | 0.766 | 0.634 | 0.553 | 0.519 | – | – | – | – | – | 0.731 | 0.699 | 0.931 | 1.04 | 0.801
NCI-H1299 | – | – | – | – | – | 1.04 | 0.972 | 1 | 1.03 | 1.02 | 0.858 | 0.864 | 0.679 | 0.61 | 0.384 | – | – | – | – | –
NCI-H1650 | 0.17 | 0.192 | 0.178 | 0.202 | 0.191 | 0.933 | 0.863 | 0.86 | 0.852 | 0.702 | 0.57 | 0.585 | 0.475 | 0.41 | 0.441 | – | – | – | – | –
NCI-H2009 | 1.07 | 1.05 | – | 0.944 | 0.944 | 0.763 | 0.683 | 0.838 | 0.743 | 0.672 | 0.793 | 0.822 | 0.887 | 0.424 | 0.662 | – | – | – | – | –
NCI-H1648 | – | – | – | – | – | 0.878 | 0.792 | – | 0.918 | 1.2 | – | – | – | – | – | – | 0.809 | 0.762 | 0.594 | 0.482
SK-MES-1 | 1 | 0.906 | 0.802 | 0.622 | 0.788 | 0.769 | 0.717 | 0.823 | 0.736 | 0.809 | 0.333 | 0.378 | 0.377 | 0.363 | 0.205 | – | – | – | – | –
NCI-H2342 | 0.725 | 0.668 | 0.625 | 0.923 | 0.742 | 0.4 | 0.397 | 0.468 | 0.475 | 0.461 | – | – | – | – | – | 0.516 | 0.467 | 0.545 | 0.39 | 0.457
SW 900 | 0.175 | 0.175 | 0.179 | 0.16 | 0.177 | 0.905 | 0.914 | 0.941 | 0.833 | 0.862 | – | – | – | – | – | 0.647 | 0.652 | 0.616 | 0.437 | 0.359
HCC-366 | – | – | – | – | – | 0.306 | 0.344 | 0.359 | 0.364 | 0.387 | 0.204 | 0.151 | 0.0985 | 0.141 | 0.168 | 0.124 | 0.0954 | 0.0688 | 0.0374 | 0.0632
A549 | – | – | – | – | – | 0.439 | 0.299 | 0.267 | 0.324 | 0.314 | 0.537 | 0.558 | 0.517 | 0.264 | 0.262 | – | – | – | – | –
NCI-H661 | 0.977 | 0.966 | 0.928 | 0.833 | 0.732 | 0.739 | 0.713 | 0.781 | 0.667 | 0.577 | 0.589 | 0.356 | 0.383 | 0.342 | 0.361 | – | – | – | – | –
NCI-H1563 | 0.473 | 0.523 | 0.54 | 0.528 | 0.541 | – | – | – | – | – | 0.613 | 0.665 | 0.664 | 0.549 | 0.628 | – | – | – | – | –
